According to US6727244B2, “Mammalian metabolites of a tachykinin receptor antagonist” (Merck & Co., Inc., priority 2000, dated 2004):

What was measured:
[1] = molecular target: T1, recombinant human CYP isozymes (Homo sapiens, UniProt P08684); assay: metabolism by microsomes containing recombinant human CYP isozymes; assay type: in vitro ADME; details: parent to M-1 (N-dealkylation); M-1 to M-2 (oxidation); M-3 to M-4 (hydroxylation); M-2 to M-5 (conversion)
T1 construct: host or cells: Baculovirus-infected sf21 insect cells (microsomes)
T1 sequence (P08684 2-503 limits assumed): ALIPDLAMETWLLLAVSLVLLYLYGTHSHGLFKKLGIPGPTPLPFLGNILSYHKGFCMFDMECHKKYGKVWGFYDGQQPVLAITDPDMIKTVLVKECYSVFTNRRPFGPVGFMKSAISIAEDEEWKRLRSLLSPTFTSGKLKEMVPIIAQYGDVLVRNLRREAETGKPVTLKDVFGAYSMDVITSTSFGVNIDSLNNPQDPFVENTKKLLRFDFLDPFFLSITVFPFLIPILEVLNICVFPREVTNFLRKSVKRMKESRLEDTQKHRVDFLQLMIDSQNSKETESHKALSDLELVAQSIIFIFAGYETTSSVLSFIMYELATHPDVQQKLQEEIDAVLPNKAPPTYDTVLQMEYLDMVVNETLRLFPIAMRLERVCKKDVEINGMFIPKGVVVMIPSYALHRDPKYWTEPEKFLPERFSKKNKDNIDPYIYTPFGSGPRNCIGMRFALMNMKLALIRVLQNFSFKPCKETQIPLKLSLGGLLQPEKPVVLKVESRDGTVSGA
Method: Hepatocytes were harvested from male Sprague-Dawley rat livers or human livers and cultured on a matrigel support and treated with 0.1 μM dexamethasone or 50 μM rifampicin, respectively, for 48 hr prior to the addition of the test compounds. A 2.5 mM stock solution of [^14C]2-(R)-(1-(R)-(3,5-bis(trifluoromethyl)-phenyl)ethoxy)-3-(S)-(4-fluoro)phenyl-4-(3-(5-oxo-1H,4H-1,2,4-triazolo)methylmorpholine, [^14C]M-1 or [^14C]M-2 in DMSO was added to the plates such that the final concentration of test compound was 25 μM and DMSO was 1% (v/v). The cultures were incubated for 4, 6 or 24 hr for rat hepatocytes and 48 hr for human hepatocytes. The incubation mixtures (500 μL) contained 10 μM of test compound, 100 mM phosphate buffer pH 7.4, NADPH-regenerating system, microsomes containing expressed CYP isoforms (CYP1A2, CYP2A6, CYP2B6, CYP2C8, CYP2C9, CYP2C19, CYP2D6, CYP2E1 or CYP3A4) and cytochrome P-450 reductase. The reactions were initiated by adding NADP and proceeded at 37° C. for 15-45 min. Acetonitrile extracts from microsomal and hepatocyte incubates were dissolved in 50% aqueous methanol and fractionated by HPLC. The separation was accomplished on a Zorbax RX C8 analytical column (5 μm, 4.6×250 mm). The mobile phase consisted of solvent A (10 mM ammonium acetate in water) and solvent B (7.3 mM ammonium acetate in 92.7% acetonitrile and 7.3% methanol. The column was eluted by a linear gradient from 35 to 80% B over 40 min at a flow rate of 1 mL/min. Fractions of major metabolites were subjected to LC-MS/MS analysis. Further purification was done using isocratic conditions prior to NMR analysis.
The incubation mixtures (500 μL) contained 10 or 25 μM of test compounds, 100 mM phosphate buffer pH 7.4, NADPH-regenerating system (5 mM glucose-6-phosphate, 1 mM NADP and 0.7 I.U/mL glucose 6-phosphate dehydrogenase), 0.5 to 2 mg/mL liver microsomal protein prepared from rats and humans or microsomes from Baculovirus-infected sf21 cells containing 20 to 200 pmol expressed CYP isoforms (CYP1A2, CYP2A6, CYP2B6, CYP2C8, CYP2C9, CYP2C19, CYP2D6, CYP2E1 or CYP3A4) and cytochrome P450 reductase. Stock solutions of the substrates in methanol were made such that final concentration of methanol in the reaction mixture was 3%. The reactions were initiated by adding 50 μL of 10 mM NADP and proceeded at 37° C. for 15-45 min. After incubation, the reactions were terminated by the addition of four volumes of acetonitrile. The suspensions were mixed vigorously and centrifuged at 3000×g for 5 min. The supernatants were dried and redissolved in 50% methanol for HPLC analysis using method A described below.

human NK1 receptor = molecular target: T2, human NK1 receptor (Homo sapiens, UniProt P25103); assay: human NK1 receptor binding assay (125I-substance P, COS or CHO cells)
T2 construct: expressed in transfected cells
T2 sequence (P25103 whole entry): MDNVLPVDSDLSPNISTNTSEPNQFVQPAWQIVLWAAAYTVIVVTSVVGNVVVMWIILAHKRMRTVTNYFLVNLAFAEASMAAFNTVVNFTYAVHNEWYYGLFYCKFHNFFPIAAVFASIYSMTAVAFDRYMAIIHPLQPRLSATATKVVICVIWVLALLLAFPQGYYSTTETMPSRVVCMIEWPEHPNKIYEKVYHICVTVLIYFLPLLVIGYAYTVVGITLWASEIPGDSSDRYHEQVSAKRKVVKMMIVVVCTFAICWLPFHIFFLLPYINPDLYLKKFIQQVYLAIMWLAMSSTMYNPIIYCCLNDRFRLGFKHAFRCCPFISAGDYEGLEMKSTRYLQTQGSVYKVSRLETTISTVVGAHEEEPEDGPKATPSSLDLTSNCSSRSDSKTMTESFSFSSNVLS
Method: To express the cloned human neurokinin-1 receptor (NKIR) transiently in COS, the cDNA for the human NKIR was cloned into the expression vector pCDM9 which was derived from pCDM8 (INVITROGEN) by inserting the ampicillin resistance gene (nucleotide 1973 to 2964 from BLUESCRIPT SK+) into the Sac II site. Transfection of 20 ug of the plasmid DNA into 10 million COS cells was achieved by electroporation in 800 ul of transfection buffer (135 mM NaCl, 1.2 mM CaCl2, 1.2 mM MgCl2, 2.4 mM K2HPO4, 0.6 mM KH2PO4, 10 mM glucose, 10 mM HEPES pH 7.4) at 260 V and 950 uF using the IBI GENEZAPPER (IBI, New Haven, Conn.). The cells were incubated in 10% fetal calf serum, 2 mM glutamine, 100U/ml penicillin-streptomycin, and 90% DMEM media (GIBCO, Grand Island, N.Y.) in 5% CO2 at 37° C. for three days before the binding assay.
To establish a stable cell line expressing the cloned human NK1R, the cDNA was subcloned into the vector pRcCMV (INVITROGEN). Transfection of 20 ug of the plasmid DNA into CHO cells was achieved by electroporation in 800 ul of transfection buffer suplemented with 0.625 mg/ml Herring sperm DNA at 300 V and 950 uF using the IBI GENEZAPPER (IBI). The transfected cells were incubated in CHO media [10 % fetal calf serum, 100 U/ml pennicilin-streptomycin, 2 mM glutamine, 1/500 hypoxanthine-thymidine (ATCC), 90% IMDM media (JRH BIOSClENCES, Lenexa, Kans.), 0.7 mg/ml G418 (GIBCO)] in 5% CO2 at 37° C. until colonies were visible. Each colony was separated and propagated. The cell clone with the highest number of human NK1R was selected for subsequent applications such as drug screening.
The binding assay of human NK1R expressed in either COS or CHO cells is based on the use of ^125I-substance P (^125I-SP, from DU PONT, Boston, Mass.) as a radioactively labeled ligand which competes with unlabeled substance P or any other ligand for binding to the human NK1R. Monolayer cell cultures of COS or CHO were dissociated by the non-enzymatic solution (SPECIALTY MEDIA, Lavallette, N.J.) and resuspended in appropriate volume of the binding buffer (50 mM Tris pH 7.5, 5 mM MnCl2, 150 mM NaCl, 0.04 mg/ml bacitracin, 0.004 mg/ml leupeptin, 0.2 mg/ml BSA, 0.01 mM phosphoramidon) such that 200 ul of the cell suspension would give rise to about 10,000 cpm of specific ^125I-SP binding (approximately 50,000 to 200,000 cells). […] The bound radioactivity was separated from unbound radioactivity by GF/C filter (BRANDEL, Gaithersburg, Md.) which was pre-wetted with 0.1 % polyethylenimine. The filter was washed with 3 ml of wash buffer (50 mM Tris pH 7.5, 5 mM MnCl2, 150 mM NaCl) three times and its radioactivity was determined by gamma counter.

[2] = oxidative metabolism in liver microsomes from rats; assay type: in vitro ADME; details: rat liver microsomes, 45 min
Method: (§1) All liver microsomal and cytosolic fractions were prepared using the following procedure. Thawed livers were homogenized with 2 volumes of 50 mM Tris-buffer (pH 7.5) containing 1.15% KCl. For microsomal and cytosolic preparations, the homogenate was centrifuged for 20 min at 9,000×g and the resulting supernatant was centrifuged for 60 min at 105,000×g. The resulting cytosolic fractions were re-centrifuged at 105,000×g for 60 min. Fractions of cytosol were aliquoted into small tubes and stored at −70° C. Subsequently, the microsomal pellets were washed with 10 mM EDTA containing 1.15% KCl and were centrifuged at 105,000×g for 60 min. Washed microsomes were resuspended in 10 mM potassium phosphate buffer (pH 7.4) containing 250 mM sucrose, aliquoted into small tubes, and stored at −70° C. Protein concentrations were determined by a modified Lowry assay (Smith et al., 1985). The specific cytochrome P450 content in each microsomal preparation was measured as described by Omura and Sato, J. Biol. Chem. 239, 2370-2378 (1964). […]
(§2) Method A was conducted on a Shimadzu HPLC system (Shimadzu Scientific Instruments Inc., Columbia Md.). The parent compounds and their metabolites were monitored directly using a radiometric detector (INUS Systems Inc. Tampa, Fla.) and Ultima-Flow M (Packard Instrument Co., Meridan Conn.) as scintillant at a flow rate of 3 mL/min. […]

[3] = oxidative metabolism in liver microsomes from humans; assay type: in vitro ADME; details: human liver microsomes, 45 min
Method: as §1, §2

Row | SMILES | CYP isozyme primarily responsible for the metabolic step [1] | IC50 (human NK1 receptor) | conversion in microsomes in the presence of an NADPH regenerating system [2] | conversion in microsomes in the presence of an NADPH regenerating system [3]
1 | C[C@@H](O[C@H]1OCCN=C1c1ccc(F)cc1)c1cc(C(F)(F)F)cc(C(F)(F)F)c1 [Metabolite M-2, (2R)-2-[(1R)-1-[3,5-bis(trifluoromethyl)phenyl]ethoxy]-3-(4-fluorophenyl)-5,6-dihydro-2H-1,4-oxazine] | CYP3A4 | ~10 nM | – | –
2 | C[C@@H](O[C@H]1OCC(=O)N[C@H]1c1ccc(F)cc1)c1cc(C(F)(F)F)cc(C(F)(F)F)c1 [Metabolite M-3, (5S,6R)-6-[(1R)-1-[3,5-bis(trifluoromethyl)phenyl]ethoxy]-5-(4-fluorophenyl)-3-morpholinone] | CYP3A4 | 4 nM | – | –
3 | C[C@@H](O[C@@H](OCC(=O)O)C(O)c1ccc(F)cc1)c1cc(C(F)(F)F)cc(C(F)(F)F)c1 (stereo partly drawn) [Metabolite M-6, [(1R)-1-[(1R)-1-[3,5-bis(trifluoromethyl)phenyl]ethoxy]-2-(4-fluorophenyl)-2-hydroxyethoxy]acetic acid] | – | 18 nM | – | –
4 | C[C@@H](O[C@H]1OCCN(Cc2n[nH]c(=O)[nH]2)[C@H]1c1ccc(F)cc1)c1cc(C(F)(F)F)cc(C(F)(F)F)c1 [Parent Compound, 5-[[(2R,3S)-2-[(1R)-1-[3,5-bis(trifluoromethyl)phenyl]ethoxy]-3-(4-fluorophenyl)4-morpholinyl]methyl]-1,2-dihydro-3H-1,2,4-triazol-3-one, reference compound] | CYP3A4 | – | < 2% | < 2%
